In one experiment the test system is pressor action of A-II. In words: Inhibitory effect on pressor action of A-II (oral drug, i.v. A-II 100 ng/kg). It is filed as in vivo, Jcl:SD rats (9 week old, male). The following applies: Rattus norvegicus, po, rats, A-II 100 ng/kg i.v.; for inhibition in vivo at 3 mg/kg: 3 mg/kg p.o., read-out: Pressor response to A II (p.o.), 3 mg/kg (percent inhibition); for inhibition in vivo at 30 mg/kg: 30 mg/kg p.o., read-out: Pressor response to A II (p.o.), 30 mg/kg (percent inhibition). The source says:
Inhibitory effect of the compound of this invention on pressor action of A-II
Jcl:SD rats (9 week old, male) were used. On the day prior to that of the experiment, these animals were applied with cannulation into the femoral artery and vein under anesthesia with pentobarbital Na. The animals were fasted but allowed free access to drinking water until the experiment was started. On the day of conducting the experiment, the artery cannula was connected with a blood-pressure transducer, and the average blood pressure was recorded by means of polygraph. […] The drugs were orally administered, and then, at each point of the measurement, A-II was administered intravenously, and the pressor action was similarly measured. By comparing the pressor action before and after administration of the drug, the percent inhibition by the drug on A-II-induced pressor action was evaluated.

The next experiment addresses T1, A-II receptor (Bos taurus, UniProt P25104).
T1 construct: An A-II receptor was prepared from the membrane fraction of bovine adrenal cortex; from tissue; host or cells: bovine adrenal cortex, membrane fraction
T1 sequence (P25104 1-359): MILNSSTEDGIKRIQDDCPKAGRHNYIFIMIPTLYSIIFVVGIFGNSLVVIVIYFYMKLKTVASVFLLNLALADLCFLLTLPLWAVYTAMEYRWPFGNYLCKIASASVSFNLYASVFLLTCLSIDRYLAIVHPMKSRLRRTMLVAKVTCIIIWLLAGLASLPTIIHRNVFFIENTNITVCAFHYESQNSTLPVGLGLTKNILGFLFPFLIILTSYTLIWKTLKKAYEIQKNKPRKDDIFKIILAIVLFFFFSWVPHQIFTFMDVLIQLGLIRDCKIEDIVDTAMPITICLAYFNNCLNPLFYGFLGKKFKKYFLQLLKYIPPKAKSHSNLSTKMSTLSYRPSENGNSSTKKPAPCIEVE
In words: Inhibition of binding of angiotensin-II to angiotensin receptor (radioreceptor assay, 125I-A-II). Conditions: bovine adrenal cortex membrane, 125I-A-II, 1 h room temperature; for inhibition at 10 µM: 1 × 10^-5 M, read-out: Radioreceptor assay, inhibition of A-II binding, 1 × 10^-5 M; for inhibition at 1 µM: 1 × 10^-6 M, read-out: Radioreceptor assay, inhibition of A-II binding, 1 × 10^-6 M. The arrangement: species or system bovine (membrane fraction of bovine adrenal cortex). Here is the method: Inhibition of binding of angiotensin-II to angiotensin receptor
An A-II receptor was prepared from the membrane fraction of bovine adrenal cortex.

In a further experiment the test system is angiotensin II. Conditions: as reported; cited from earlier work.

The source of these data is patent US5250554A, “Benzimidazole derivatives useful as angiotensin II inhibitors” (Takeda Chemical Industries, Ltd., priority 1989, dated 1993).

The inhibition is the drop in the measured response relative to a control, in per cent.

A value given as a limit tells only on which side of the number the result lay.

Regarding `COCc1nc2cccc(C(=O)O)c2n1Cc1ccc(-c2ccccc2-c2nnn[nH]2)cc1` [Working Example 49, 2-Methoxymethyl-1-[[2'-(1H-tetrazol-5-yl)biphenyl-4-yl]methyl]benzimidazole-7-carboxylic acid], in the experiment on pressor action of A-II, the inhibition in vivo at 3 mg/kg was greater than 70% and the inhibition in vivo at 30 mg/kg was greater than 70%. Moreover, on A-II receptor, the inhibition at 10 µM was found to be 73% and the inhibition at 1 µM came out at 35%.

Regarding `CSCc1nc2cccc(C(=O)O)c2n1Cc1ccc(-c2ccccc2-c2nnn[nH]2)cc1` [Working Example 51, 2-Methylthiomethyl-1-[[2'-(1H-tetrazol-5-yl)biphenyl-4-yl]methyl]benzimidazole-7-carboxylic acid], in the experiment on pressor action of A-II, the inhibition in vivo at 3 mg/kg is greater than 70% and the inhibition in vivo at 30 mg/kg was greater than 70%. In addition, on A-II receptor, the inhibition at 10 µM is 76% and the inhibition at 1 µM is 45%.

Take `CCCCc1nc2ccc(OC)cc2n1Cc1ccc(-c2ccccc2-c2nn[nH]n2)cc1` [compound 19, reference compound]: the inhibition in vivo at 3 mg/kg in the experiment on pressor action of A-II is less than 30%. Also, at A-II receptor, the inhibition at 10 µM was found to be 88% and the inhibition at 1 µM was found to be 47%.

For the compound `CCCCc1nc2ccc(Cl)cc2n1Cc1ccc(-c2ccccc2-c2nn[nH]n2)cc1` [compound 21, 2-Butyl-6-chloro-1-[[2,-(1H-tetrazol-5-yl)biphenyl-4-yl]methyl]benzimidazol, reference compound], in the experiment on pressor action of A-II, the inhibition in vivo at 30 mg/kg is less than 30%. Moreover, on A-II receptor, the inhibition at 10 µM was 79% and the inhibition at 1 µM is 22%.

`CCCCc1nc2c(C(N)=O)cccc2n1Cc1ccc(-c2ccccc2-c2nnn[nH]2)cc1` [compound 30, 2-Butyl-1-[[2'-(1H-tetrazol-5-yl)biphenyl-4-yl]methyl]benzimidazole-4-carboxamide, reference compound]: in the experiment with pressor action of A-II, the inhibition in vivo at 3 mg/kg is less than 30% and the inhibition in vivo at 30 mg/kg is less than 30%. In addition, at A-II receptor, the inhibition at 10 µM was determined as 40% and the inhibition at 1 µM was 1%.

With `CCCCc1nc2cc(C(=O)O)ccc2n1Cc1ccc(-c2ccccc2-c2nnn[nH]2)cc1` [compound 44, 2-Butyl-1-[[2'-(1H-tetrazol-5-yl)biphenyl-4-yl]methyl]benzimidazole-5-carboxylic acid, reference compound], the inhibition in vivo at 3 mg/kg with pressor action of A-II is less than 30%. In addition, on A-II receptor, the inhibition at 10 µM amounted to 66% and the inhibition at 1 µM came out at 13%.

For `CCCCc1nc2ccc(C(=O)OC)cc2n1Cc1ccc(-c2ccccc2-c2nnn[nH]2)cc1` [compound 49, Methyl 2-butyl-1-[[2'-(1H-tetrazol-5-yl)biphenyl-4-yl]methyl]benzimidazole-6-carboxylate, reference compound], in the experiment on pressor action of A-II, the inhibition in vivo at 3 mg/kg is less than 30% and the inhibition in vivo at 30 mg/kg was less than 30%. At A-II receptor, the inhibition at 10 µM was determined as 94% and the inhibition at 1 µM was 77%.

For `CCCCc1nc2ccc(C(=O)O)cc2n1Cc1ccc(-c2ccccc2-c2nn[nH]n2)cc1` [compound 50, reference compound], in the experiment on pressor action of A-II, the inhibition in vivo at 3 mg/kg is less than 30% and the inhibition in vivo at 30 mg/kg was less than 30%. Moreover, at A-II receptor, the inhibition at 10 µM was found to be 53% and the inhibition at 1 µM came to 7%.

For `CNCC(=O)N[C@@H](CCCN=C(N)N)C(=O)N[C@H](C(=O)N[C@@H](Cc1ccc(O)cc1)C(=O)N[C@H](C(=O)N[C@@H](Cc1cnc[nH]1)C(=O)N1CCC[C@H]1C(=O)N[C@@H](C)C(=O)O)C(C)C)C(C)C` [saralasin], the “angiotensin II antagonism” value in the experiment on angiotensin II is “potent angiotensin II antagonism”.

Take [Sar^1, Ala^8 ]AII: in the experiment on angiotensin II, the “angiotensin II antagonism” value was “potent angiotensin II antagonism”.
